# Source: US20260070945A1, “MACROCYCLIC IMMUNOMODULATORS” (Bristol-Myers Squibb Company, priority 2022, published 2026)
# Where a SMILES comes first, the peptide text is derived from it. Bridges are numbered along the chain shown (N, C = ends). [ ]: non-standard residue; d: D form. The star is where a group is joined. ξ: configuration not given here. Phe(4-CONH2) = NC(=O)c1ccc(C[C@H](N)C(=O)O)cc1; Phe(4-COOH) = N[C@@H](Cc1ccc(C(=O)O)cc1)C(=O)O; Bip = N[C@@H](Cc1ccc(-c2ccccc2)cc1)C(=O)O; Phe(3-Me) = Cc1cccc(C[C@H](N)C(=O)O)c1; Val(3-OH) = CC(C)(O)[C@H](N)C(=O)O; Cha = N[C@@H](CC1CCCCC1)C(=O)O; Thr(3ξ) = CC(O)[C@H](N)C(=O)O; 12Ado = NCCCCCCCCCCCC(=O)O; hSer = N[C@@H](CCO)C(=O)O; Carboxymethyl = O=C(O)C*; NMeA = CN[C@@H](C)C(=O)O; Orn = NCCC[C@H](N)C(=O)O; Aun = NCCCCCCCCCCC(=O)O; Dab = NCC[C@H](N)C(=O)O; Dap = NC[C@H](N)C(=O)O; AEEA = NCCOCCOCC(=O)O
# Target: T1, PD-1/PD-L1 interaction (PE-labeled human PD-L1-Ig binding to Jurkat cell line over-expressing human PD-1) (Homo sapiens, UniProt Q15116)
# T1 construct: expressed in transfected cells; host or cells: Jurkat
# T1 sequence (Q15116 25-288): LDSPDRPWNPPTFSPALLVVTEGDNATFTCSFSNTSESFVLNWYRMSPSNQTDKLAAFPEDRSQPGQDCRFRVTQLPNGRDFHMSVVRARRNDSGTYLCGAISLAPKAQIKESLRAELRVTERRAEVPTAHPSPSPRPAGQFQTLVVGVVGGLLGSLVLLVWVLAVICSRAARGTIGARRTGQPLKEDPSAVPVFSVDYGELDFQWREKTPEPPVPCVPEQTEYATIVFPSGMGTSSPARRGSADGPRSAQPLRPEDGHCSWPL
# Assay: Jurkat-PD-1 Cell Binding High-Content Screening Assay (CBA)
# Conditions: Jurkat-hPD-1 cells, PE-labeled PD-L1-Ig 20 nM final; read-out: Jurkat HPD1 PDL1 IC50
# Procedure, shortened: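 Compound is added first to the PD-1-expressing Jurkat cells and held 2 h at 37 °C in serum-containing DMEM. The fluorescent PD-L1 fusion follows at 20 nM final for 1 h. Fixed, Hoechst-stained cells are then imaged for bound label.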
row,Compound,IC50 [nM]
1,CC(=O)NCCCC[C@@H]1NC(=O)[C@H](Cc2ccc(-c3ccccc3)cc2)NC(=O)[C@H](Cc2ccc(O)cc2)NC(=O)[C@H](Cc2cccc(C)c2)NC(=O)[C@H](CC(=O)O)NC(=O)[C@H](Cc2ccc(OCC(=O)O)cc2)NC(=O)[C@H](CCN)NC(=O)CSC[C@@H](C(=O)N[C@@H](CCN)C(=O)NCCCCCCCCCCC(=O)O)NC(=O)[C@H](C(C)O)NC(=O)[C@H](C(C)C)NC(=O)[C@H](CC2CCCCC2)NC(=O)[C@H](CCN)NC(=O)[C@@H](CC(C)C)NC(=O)[C@H](C)N(C)C1=O (stereo partly drawn) [Example 2421] ({CH2CO}-[Dab]Y(Carboxymethyl)D[Phe(3-Me)]Y[Bip]K(Ac)[NMeA][dL][Dab][Cha]V[Thr(3ξ)]C[Dab][Aun]-OH; thioether N-14),14.6
2,CC(=O)NCCCC[C@@H]1NC(=O)[C@H](Cc2ccc(-c3ccccc3)cc2)NC(=O)[C@H](Cc2ccc(O)cc2)NC(=O)[C@H](Cc2cccc(C)c2)NC(=O)[C@H](CC(=O)O)NC(=O)[C@H](Cc2ccc(OCC(=O)O)cc2)NC(=O)[C@H](Cc2ccc(OCC(=O)O)cc2)NC(=O)CSC[C@@H](C(=O)NCCOCCOCC(=O)NCCCCCCCCCCC(=O)O)NC(=O)[C@H](CCO)NC(=O)[C@H](C(C)C)NC(=O)[C@H](CC2CCCCC2)NC(=O)[C@H](CCN)NC(=O)[C@@H](CC(C)C)NC(=O)[C@H](C)N(C)C1=O [Example 2422] ({CH2CO}-Y(Carboxymethyl)Y(Carboxymethyl)D[Phe(3-Me)]Y[Bip]K(Ac)[NMeA][dL][Dab][Cha]V[hSer]C[AEEA][Aun]-OH; thioether N-14),24.9
3,Cc1cccc(C[C@@H]2NC(=O)[C@H](CC(=O)O)NC(=O)[C@H](Cc3ccc(OCC(=O)O)cc3)NC(=O)[C@H](Cc3ccc(C(N)=O)cc3)NC(=O)CSC[C@@H](C(=O)N[C@H](CC(N)=O)C(=O)NCCOCCOCC(=O)NCCCCCCCCCCC(=O)O)NC(=O)[C@H](CO)NC(=O)[C@H](C(C)C)NC(=O)[C@H](CC3CCCCC3)NC(=O)[C@H](CCN)NC(=O)[C@@H](CC(C)C)NC(=O)[C@H](C)N(C)C(=O)[C@H](Cc3ccc(O)cc3)NC(=O)[C@H](Cc3ccc(-c4ccccc4)cc3)NC(=O)[C@H](Cc3ccc(OCC(=O)O)cc3)NC2=O)c1 [Example 2423] ({CH2CO}-[Phe(4-CONH2)]Y(Carboxymethyl)D[Phe(3-Me)]Y(Carboxymethyl)[Bip]Y[NMeA][dL][Dab][Cha]VSC[dN][AEEA][Aun]-OH; thioether N-14),14.2
4,Cc1cccc(C[C@@H]2NC(=O)[C@H](CC(=O)O)NC(=O)[C@H](Cc3ccc(C(=O)O)cc3)NC(=O)[C@H](C(C)O)NC(=O)CSC[C@@H](C(=O)N[C@@H](CCCN)C(=O)N[C@@H](CO)C(=O)NCCCCCCCCCCCC(=O)O)NC(=O)[C@H](CO)NC(=O)[C@H](CCCCN)NC(=O)[C@H](CC3CCCCC3)NC(=O)[C@H](CCN)NC(=O)[C@@H](CC(C)C)NC(=O)[C@H](C)N(C)C(=O)[C@H](Cc3ccc(OCC(=O)O)cc3)NC(=O)[C@H](Cc3ccc(-c4ccccc4)cc3)NC(=O)[C@H](Cc3ccc(OCC(=O)O)cc3)NC2=O)c1 (stereo partly drawn) [Example 2424] ({CH2CO}-[Thr(3ξ)][Phe(4-COOH)]D[Phe(3-Me)]Y(Carboxymethyl)[Bip]Y(Carboxymethyl)[NMeA][dL][Dab][Cha]KSC[Orn]S[12Ado]-OH; thioether N-14),108
5,Cc1cccc(C[C@@H]2NC(=O)[C@H](CC(=O)O)NC(=O)[C@H](Cc3ccc(OCC(=O)O)cc3)NC(=O)[C@H](CCN)NC(=O)CSC[C@@H](C(=O)N[C@@H](CCN)C(=O)NCCCCCCCCCCC(=O)O)NC(=O)[C@H](CO)NC(=O)[C@H](C(C)O)NC(=O)[C@H](CC3CCCCC3)NC(=O)[C@H](CCN)NC(=O)[C@@H](CC(C)C)NC(=O)[C@H](C)N(C)C(=O)[C@H](Cc3ccc(OCC(=O)O)cc3)NC(=O)[C@H](Cc3ccc(-c4ccccc4)cc3)NC(=O)[C@H](Cc3ccc(OCC(=O)O)cc3)NC2=O)c1 (stereo partly drawn) [Example 2425] ({CH2CO}-[Dab]Y(Carboxymethyl)D[Phe(3-Me)]Y(Carboxymethyl)[Bip]Y(Carboxymethyl)[NMeA][dL][Dab][Cha][Thr(3ξ)]SC[Dab][Aun]-OH; thioether N-14),15.6

# Same assay, conditions: PE-labeled PD-L1-Ig 20 nM final, Jurkat-hPD-1 cells; read-out: Jurkat HPD1 PDL1 IC50
row,Compound,IC50 [nM]
1,Cc1cccc(C[C@@H]2NC(=O)[C@H](CC(=O)O)NC(=O)[C@H](Cc3ccc(OCC(=O)O)cc3)NC(=O)[C@H](C(C)O)NC(=O)CSC[C@@H](C(=O)N[C@@H](CCN)C(=O)NCCCCCCCCCCC(=O)O)NC(=O)[C@H](CO)NC(=O)[C@H](Cc3cnc[nH]3)NC(=O)[C@H](CC3CCCCC3)NC(=O)[C@H](CCN)NC(=O)[C@@H](CC(C)C)NC(=O)[C@H](C)N(C)C(=O)[C@H](Cc3ccc(OCC(=O)O)cc3)NC(=O)[C@H](Cc3ccc(-c4ccccc4)cc3)NC(=O)[C@H](Cc3ccc(OCC(=O)O)cc3)NC2=O)c1 (stereo partly drawn) [Example 2426] ({CH2CO}-[Thr(3ξ)]Y(Carboxymethyl)D[Phe(3-Me)]Y(Carboxymethyl)[Bip]Y(Carboxymethyl)[NMeA][dL][Dab][Cha]HSC[Dab][Aun]-OH; thioether N-14),36
2,Cc1cccc(C[C@@H]2NC(=O)[C@H](CC(=O)O)NC(=O)[C@H](Cc3ccc(OCC(=O)O)cc3)NC(=O)[C@H](CN)NC(=O)CSC[C@@H](C(=O)N[C@@H](CCN)C(=O)NCCCCCCCCCCC(=O)O)NC(=O)[C@H](CO)NC(=O)[C@H](Cc3cnc[nH]3)NC(=O)[C@H](CC3CCCCC3)NC(=O)[C@H](CCN)NC(=O)[C@@H](CC(C)C)NC(=O)[C@H](C)N(C)C(=O)[C@H](Cc3ccc(OCC(=O)O)cc3)NC(=O)[C@H](Cc3ccc(-c4ccccc4)cc3)NC(=O)[C@H](Cc3ccc(OCC(=O)O)cc3)NC2=O)c1 [Example 2427] ({CH2CO}-[Dap]Y(Carboxymethyl)D[Phe(3-Me)]Y(Carboxymethyl)[Bip]Y(Carboxymethyl)[NMeA][dL][Dab][Cha]HSC[Dab][Aun]-OH; thioether N-14),30.7
3,CC(C)C[C@H]1NC(=O)[C@H](C)N(C)C(=O)[C@H](Cc2ccc(OCC(=O)O)cc2)NC(=O)[C@H](Cc2ccc(-c3ccccc3)cc2)NC(=O)[C@H](Cc2ccc(OCC(=O)O)cc2)NC(=O)[C@H](Cc2c[nH]c3ccccc23)NC(=O)[C@H](CC(=O)O)NC(=O)[C@H](Cc2ccc(OCC(=O)O)cc2)NC(=O)[C@H](C(C)O)NC(=O)CSC[C@@H](C(=O)N[C@@H](CCN)C(=O)NCCCCCCCCCCC(=O)O)NC(=O)[C@H](CO)NC(=O)[C@H](Cc2cnc[nH]2)NC(=O)[C@H](CC2CCCCC2)NC(=O)[C@H](CCN)NC1=O (stereo partly drawn) [Example 2428] ({CH2CO}-[Thr(3ξ)]Y(Carboxymethyl)DWY(Carboxymethyl)[Bip]Y(Carboxymethyl)[NMeA][dL][Dab][Cha]HSC[Dab][Aun]-OH; thioether N-14),259
4,CC(C)C[C@H]1NC(=O)[C@H](C)N(C)C(=O)[C@H](Cc2ccc(C(N)=O)cc2)NC(=O)[C@H](Cc2ccc(-c3ccccc3)cc2)NC(=O)[C@H](Cc2ccc(C(N)=O)cc2)NC(=O)[C@H](Cc2c[nH]c3ccccc23)NC(=O)[C@H](CC(=O)O)NC(=O)[C@H](Cc2ccc(OCC(=O)O)cc2)NC(=O)[C@H](C(C)O)NC(=O)CSC[C@@H](C(=O)N[C@@H](CCN)C(=O)NCCCCCCCCCCC(=O)O)NC(=O)[C@H](CO)NC(=O)[C@H](Cc2cnc[nH]2)NC(=O)[C@H](CC2CCCCC2)NC(=O)[C@H](CCN)NC1=O (stereo partly drawn) [Example 2429] ({CH2CO}-[Thr(3ξ)]Y(Carboxymethyl)DW[Phe(4-CONH2)][Bip][Phe(4-CONH2)][NMeA][dL][Dab][Cha]HSC[Dab][Aun]-OH; thioether N-14),217
5,Cc1cccc(C[C@@H]2NC(=O)[C@H](CC(=O)O)NC(=O)[C@H](Cc3ccc(OCC(=O)O)cc3)NC(=O)[C@H](C(C)O)NC(=O)CSC[C@@H](C(=O)N[C@@H](CCN)C(=O)NCCCCCCCCCCC(=O)O)NC(=O)[C@H](CO)NC(=O)[C@H](C(C)(C)O)NC(=O)[C@H](CC3CCCCC3)NC(=O)[C@H](CCN)NC(=O)[C@@H](CC(C)C)NC(=O)[C@H](C)N(C)C(=O)[C@H](Cc3ccc(OCC(=O)O)cc3)NC(=O)[C@H](Cc3ccc(-c4ccccc4)cc3)NC(=O)[C@H](Cc3ccc(C(=O)O)cc3)NC2=O)c1 (stereo partly drawn) [Example 2430] ({CH2CO}-[Thr(3ξ)]Y(Carboxymethyl)D[Phe(3-Me)][Phe(4-COOH)][Bip]Y(Carboxymethyl)[NMeA][dL][Dab][Cha][Val(3-OH)]SC[Dab][Aun]-OH; thioether N-14),34.2
6,Cc1cccc(C[C@@H]2NC(=O)[C@H](CC(=O)O)NC(=O)[C@H](Cc3ccc(OCC(=O)O)cc3)NC(=O)[C@H](C(C)O)NC(=O)CSC[C@@H](C(=O)NCCOCCOCC(=O)NCCCCCCCCCCC(=O)O)NC(=O)[C@H](Cc3cnc[nH]3)NC(=O)[C@H](C(C)(C)O)NC(=O)[C@H](CC3CCCCC3)NC(=O)[C@H](CCN)NC(=O)[C@@H](CC(C)C)NC(=O)[C@H](C)N(C)C(=O)[C@H](Cc3ccc(OCC(=O)O)cc3)NC(=O)[C@H](Cc3ccc(-c4ccccc4)cc3)NC(=O)[C@H](Cc3ccc(C(=O)O)cc3)NC2=O)c1 (stereo partly drawn) [Example 2431] ({CH2CO}-[Thr(3ξ)]Y(Carboxymethyl)D[Phe(3-Me)][Phe(4-COOH)][Bip]Y(Carboxymethyl)[NMeA][dL][Dab][Cha][Val(3-OH)]HC[AEEA][Aun]-OH; thioether N-14),140
7,CC(C)C[C@@H]1NC(=O)[C@H](Cc2c[nH]c3ccccc23)NC(=O)[C@H](CC(=O)O)NC(=O)[C@H](Cc2ccc(C(=O)O)cc2)NC(=O)[C@H](Cc2ccc(OCC(=O)O)cc2)NC(=O)CSC[C@@H](C(=O)NCCOCCOCC(=O)NCCCCCCCCCCC(=O)O)NC(=O)[C@H](CO)NC(=O)[C@H](C(C)O)NC(=O)[C@H](CC2CCCCC2)NC(=O)[C@H](CCN)NC(=O)[C@@H](CC(C)C)NC(=O)[C@H](C)N(C)C(=O)[C@H](C(C)C)NC(=O)[C@H](Cc2ccc(-c3ccccc3)cc2)NC1=O (stereo partly drawn) [Example 2433] ({CH2CO}-Y(Carboxymethyl)[Phe(4-COOH)]DWL[Bip]V[NMeA][dL][Dab][Cha][Thr(3ξ)]SC[AEEA][Aun]-OH; thioether N-14),35.2
